According to ChEMBL document CHEMBL4800727 (2021):
The source made the active and inactive calls. The rule behind the calls is not given here.

Experiments:
[1] = target: Muscarinic acetylcholine receptor M3 (Homo sapiens) (UniProt P20309); test: hM3 Cerep panel; details: Compound concentration 10.0 uM
[2] = organism: Rattus norvegicus; test: rCL channel Cerep panel; details: Compound concentration 10.0 uM
[3] = target: Serine/threonine-protein kinase Nek6 (Homo sapiens) (UniProt Q9HC98); test: NIMA -related kinase 6 Millipore kinase panel; details: Compound concentration 10.0 uM
[4] = target: Insulin receptor (Homo sapiens) (UniProt P06213); test: insulin receptor (activated) Millipore kinase panel; details: Compound concentration 10.0 uM
[5] = glyine Cerep panel; details: Compound concentration 10.0 uM
[6] = target: Protein kinase C delta type (Homo sapiens) (UniProt Q05655); test: protein kinase C, delta Millipore kinase panel; details: Compound concentration 10.0 uM
[7] = target: Dual specificity mitogen-activated protein kinase kinase 6 (Homo sapiens) (UniProt P52564); test: mitogen-activated protein kinase kinase 6 Millipore kinase panel; details: Compound concentration 10.0 uM
Chain of Dual specificity mitogen-activated protein kinase kinase 6 (Homo sapiens) (P52564 whole entry): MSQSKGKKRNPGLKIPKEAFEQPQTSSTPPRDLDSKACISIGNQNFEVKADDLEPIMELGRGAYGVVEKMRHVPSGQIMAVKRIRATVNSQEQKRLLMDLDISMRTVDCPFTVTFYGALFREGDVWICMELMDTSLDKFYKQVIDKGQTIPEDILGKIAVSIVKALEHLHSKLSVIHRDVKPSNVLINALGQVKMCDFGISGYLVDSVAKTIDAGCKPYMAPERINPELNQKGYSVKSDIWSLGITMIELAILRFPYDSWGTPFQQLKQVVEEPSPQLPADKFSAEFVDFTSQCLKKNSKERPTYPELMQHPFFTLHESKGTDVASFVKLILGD

[8] = target: Serine/threonine-protein kinase 24 (Homo sapiens) (UniProt Q9Y6E0); test: serine/threonine kinase 24 Millipore kinase panel; details: Compound concentration 10.0 uM
[9] = target: Insulin-like growth factor 1 receptor (Homo sapiens) (UniProt P08069); test: insulin-like growth factor 1 receptor Millipore kinase panel; details: Compound concentration 10.0 uM
[10] = target: Mast/stem cell growth factor receptor Kit (Homo sapiens) (UniProt P10721); test: v-kit Hardy-Zuckerman 4 feline sarcoma viral oncogene homolog Millipore kinase panel; details: Compound concentration 10.0 uM
[11] = target: Glycogen synthase kinase-3 beta (Homo sapiens) (UniProt P49841); test: glycogen synthase kinase 3 beta Millipore kinase panel; details: Compound concentration 10.0 uM
[12] = target: Mitogen-activated protein kinase 9 (Homo sapiens) (UniProt P45984); test: mitogen-activated protein kinase 9 Millipore kinase panel; details: Compound concentration 10.0 uM
[13] = target: MAP kinase-interacting serine/threonine-protein kinase 2 (Homo sapiens) (UniProt Q9HBH9); test: MAP kinase interacting serine/threonine kinase 2 Millipore kinase panel; details: Compound concentration 10.0 uM
[14] = target: cAMP and cAMP-inhibited cGMP 3',5'-cyclic phosphodiesterase 10A (Mus musculus, UniProt Q8CA95); test: SPA with mouse PDE10A
[15] = target: Serine/threonine-protein kinase TAO3 (Homo sapiens) (UniProt Q9H2K8); test: TAO kinase 3 Millipore kinase panel; details: Compound concentration 10.0 uM
[16] = target: Discoidin domain-containing receptor 2 (Homo sapiens) (UniProt Q16832); test: discoidin domain receptor tyrosine kinase 2 Millipore kinase panel; details: Compound concentration 10.0 uM
[17] = target: Serine/threonine-protein kinase 17A (Homo sapiens) (UniProt Q9UEE5); test: serine/threonine kinase 17a Millipore kinase panel; details: Compound concentration 10.0 uM
[18] = target: Death-associated protein kinase 1 (Homo sapiens) (UniProt P53355); test: death-associated protein kinase 1 Millipore kinase panel; details: Compound concentration 10.0 uM
Chain of Death-associated protein kinase 1 (Homo sapiens) (P53355 whole entry, looked up): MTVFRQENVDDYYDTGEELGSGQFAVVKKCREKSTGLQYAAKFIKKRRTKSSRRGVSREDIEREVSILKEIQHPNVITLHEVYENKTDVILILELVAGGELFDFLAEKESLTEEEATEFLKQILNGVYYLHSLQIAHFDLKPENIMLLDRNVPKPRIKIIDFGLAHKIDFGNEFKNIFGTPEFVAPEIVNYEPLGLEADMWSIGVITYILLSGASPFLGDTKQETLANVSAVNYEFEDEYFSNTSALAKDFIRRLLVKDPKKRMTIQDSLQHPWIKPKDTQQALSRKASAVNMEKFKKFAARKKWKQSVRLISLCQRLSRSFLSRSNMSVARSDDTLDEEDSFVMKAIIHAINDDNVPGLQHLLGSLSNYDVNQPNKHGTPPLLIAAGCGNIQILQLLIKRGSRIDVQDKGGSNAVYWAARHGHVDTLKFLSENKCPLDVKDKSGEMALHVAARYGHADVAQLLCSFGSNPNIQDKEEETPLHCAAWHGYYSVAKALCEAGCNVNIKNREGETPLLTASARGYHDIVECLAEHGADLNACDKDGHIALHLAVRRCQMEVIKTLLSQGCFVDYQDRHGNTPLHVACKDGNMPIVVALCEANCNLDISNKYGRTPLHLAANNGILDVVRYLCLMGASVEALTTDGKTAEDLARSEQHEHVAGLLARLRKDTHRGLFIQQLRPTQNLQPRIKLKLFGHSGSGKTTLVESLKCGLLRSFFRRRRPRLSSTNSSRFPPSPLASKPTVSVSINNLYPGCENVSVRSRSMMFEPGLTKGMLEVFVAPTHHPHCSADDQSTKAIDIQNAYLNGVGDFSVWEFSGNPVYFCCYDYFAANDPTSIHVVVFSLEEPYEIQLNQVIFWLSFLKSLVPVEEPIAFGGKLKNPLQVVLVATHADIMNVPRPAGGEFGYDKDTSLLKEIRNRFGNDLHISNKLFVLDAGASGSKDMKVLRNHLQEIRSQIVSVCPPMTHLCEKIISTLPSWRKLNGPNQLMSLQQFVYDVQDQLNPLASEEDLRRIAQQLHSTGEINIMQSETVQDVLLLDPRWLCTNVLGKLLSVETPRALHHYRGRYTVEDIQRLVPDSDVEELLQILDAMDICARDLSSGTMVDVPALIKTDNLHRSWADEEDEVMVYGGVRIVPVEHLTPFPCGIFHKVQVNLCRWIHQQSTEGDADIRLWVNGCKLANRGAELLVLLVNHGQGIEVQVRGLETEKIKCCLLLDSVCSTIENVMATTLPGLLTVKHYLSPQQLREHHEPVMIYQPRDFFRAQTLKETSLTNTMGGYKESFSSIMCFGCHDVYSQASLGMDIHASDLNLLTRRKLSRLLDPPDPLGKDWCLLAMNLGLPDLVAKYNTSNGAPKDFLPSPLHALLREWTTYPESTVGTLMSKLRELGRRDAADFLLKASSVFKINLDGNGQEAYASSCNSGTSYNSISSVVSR

[19] = target: Tyrosine-protein kinase Lck (Homo sapiens) (UniProt P06239); test: lymphocyte-specific protein tyrosine kinase (activated) Millipore kinase panel; details: Compound concentration 10.0 uM
[20] = target: Ephrin type-A receptor 2 (Homo sapiens) (UniProt P29317); test: EPH receptor A2 Millipore kinase panel; details: Compound concentration 10.0 uM
[21] = target: Prostaglandin E2 receptor EP2 subtype (Homo sapiens) (UniProt P43116); test: hEP2 Cerep panel; details: Compound concentration 10.0 uM
[22] = target: Mitogen-activated protein kinase 11 (Homo sapiens) (UniProt Q15759); test: mitogen-activated protein kinase 11 Millipore kinase panel; details: Compound concentration 10.0 uM
[23] = target: Ephrin type-A receptor 7 (Homo sapiens) (UniProt Q15375); test: EPH receptor A7 Millipore kinase panel; details: Compound concentration 10.0 uM
[24] = target: T1, 5-hydroxytryptamine receptor 3A (Homo sapiens) (UniProt P46098); test: h5HT3 Cerep panel; details: Compound concentration 10.0 uM
T1 sequence (whole entry): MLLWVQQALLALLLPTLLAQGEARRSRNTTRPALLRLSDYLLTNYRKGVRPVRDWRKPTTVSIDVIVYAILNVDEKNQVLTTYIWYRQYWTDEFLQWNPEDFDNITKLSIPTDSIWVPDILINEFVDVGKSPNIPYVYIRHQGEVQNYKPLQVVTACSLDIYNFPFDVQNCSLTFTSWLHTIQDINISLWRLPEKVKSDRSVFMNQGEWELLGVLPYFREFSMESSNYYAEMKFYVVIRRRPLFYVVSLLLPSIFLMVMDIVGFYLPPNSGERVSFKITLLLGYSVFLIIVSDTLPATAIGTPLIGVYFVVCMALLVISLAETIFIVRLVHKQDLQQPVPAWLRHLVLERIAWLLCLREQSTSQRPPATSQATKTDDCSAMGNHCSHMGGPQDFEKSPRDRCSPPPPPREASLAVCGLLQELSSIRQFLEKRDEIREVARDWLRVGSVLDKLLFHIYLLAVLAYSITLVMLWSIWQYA

[25] = target: LIM domain kinase 1 (Homo sapiens) (UniProt P53667); test: LIM domain kinase 1 Millipore kinase panel; details: Compound concentration 10.0 uM
[26] = target: Serine/threonine-protein kinase pim-1 (Homo sapiens) (UniProt P11309); test: pim-1 oncogene Millipore kinase panel; details: Compound concentration 10.0 uM
Chain of Serine/threonine-protein kinase pim-1 (Homo sapiens) (P11309 whole entry, looked up): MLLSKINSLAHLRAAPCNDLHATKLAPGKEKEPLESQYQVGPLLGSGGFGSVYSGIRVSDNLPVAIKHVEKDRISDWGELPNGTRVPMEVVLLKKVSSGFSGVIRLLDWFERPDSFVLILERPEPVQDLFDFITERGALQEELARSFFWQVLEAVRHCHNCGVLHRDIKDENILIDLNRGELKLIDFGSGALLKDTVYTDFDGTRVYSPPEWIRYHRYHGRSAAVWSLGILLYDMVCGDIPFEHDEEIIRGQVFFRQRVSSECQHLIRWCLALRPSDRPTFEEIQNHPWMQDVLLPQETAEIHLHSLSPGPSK

[27] = target: Glutamate NMDA receptor (Rattus norvegicus) (UniProt P35439+Q00959+Q00960+Q00961+Q62645+Q8VHN2+Q9R1M7); test: rNMDA Cerep panel; type: protein-complex assay; details: Compound concentration 10.0 uM
[28] = target: SRSF protein kinase 3 (Homo sapiens) (UniProt Q9UPE1); test: SFRS protein kinase 3 Millipore kinase panel; details: Compound concentration 10.0 uM
[29] = target: Serine/threonine-protein kinase PAK 6 (Homo sapiens) (UniProt Q9NQU5); test: p21 protein -activated kinase 6 Millipore kinase panel; details: Compound concentration 10.0 uM
[30] = target: Fibroblast growth factor receptor 4 (Homo sapiens) (UniProt P22455); test: fibroblast growth factor receptor 4 Millipore kinase panel; details: Compound concentration 10.0 uM
[31] = target: Tyrosine-protein kinase ZAP-70 (Homo sapiens) (UniProt P43403); test: zeta-chain associated protein kinase 70kDa Millipore kinase panel; details: Compound concentration 10.0 uM
[32] = target: Tyrosine-protein kinase Tec (Homo sapiens) (UniProt P42680); test: tec protein tyrosine kinase (activated) Millipore kinase panel; details: Compound concentration 10.0 uM
[33] = target: High affinity cAMP-specific and IBMX-insensitive 3',5'-cyclic phosphodiesterase 8A (Homo sapiens, UniProt O60658); test: hPDE8A1 PDE scan
[34] = target: Homeodomain-interacting protein kinase 1 (Homo sapiens) (UniProt Q86Z02); test: homeodomain interacting protein kinase 1 Millipore kinase panel; details: Compound concentration 10.0 uM
[35] = target: Alpha-2B adrenergic receptor (Homo sapiens, UniProt P18089); test: GPCRScan assay: inhibition of Alpha2B; set-up: radioligand conc. used [nm] 1.5 – 2.0, parental cells HEKT
Chain of Alpha-2B adrenergic receptor (P18089 whole entry): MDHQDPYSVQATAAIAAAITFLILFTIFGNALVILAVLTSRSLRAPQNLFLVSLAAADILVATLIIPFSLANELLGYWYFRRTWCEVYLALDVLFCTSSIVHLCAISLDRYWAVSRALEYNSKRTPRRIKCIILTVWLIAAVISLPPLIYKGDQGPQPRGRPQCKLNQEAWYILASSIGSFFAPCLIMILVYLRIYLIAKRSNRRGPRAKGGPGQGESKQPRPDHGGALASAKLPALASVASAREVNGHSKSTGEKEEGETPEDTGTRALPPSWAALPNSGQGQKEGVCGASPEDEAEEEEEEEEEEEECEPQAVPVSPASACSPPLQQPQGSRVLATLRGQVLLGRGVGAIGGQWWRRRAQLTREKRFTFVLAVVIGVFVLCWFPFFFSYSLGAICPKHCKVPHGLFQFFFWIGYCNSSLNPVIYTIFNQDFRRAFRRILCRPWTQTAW

[36] = organism: Rattus norvegicus; test: rNa channel Cerep panel; details: Compound concentration 10.0 uM
[37] = target: Progesterone receptor (Homo sapiens) (UniProt P06401); test: hPR Cerep panel; details: Compound concentration 10.0 uM
Chain of Progesterone receptor (Homo sapiens) (P06401 whole entry): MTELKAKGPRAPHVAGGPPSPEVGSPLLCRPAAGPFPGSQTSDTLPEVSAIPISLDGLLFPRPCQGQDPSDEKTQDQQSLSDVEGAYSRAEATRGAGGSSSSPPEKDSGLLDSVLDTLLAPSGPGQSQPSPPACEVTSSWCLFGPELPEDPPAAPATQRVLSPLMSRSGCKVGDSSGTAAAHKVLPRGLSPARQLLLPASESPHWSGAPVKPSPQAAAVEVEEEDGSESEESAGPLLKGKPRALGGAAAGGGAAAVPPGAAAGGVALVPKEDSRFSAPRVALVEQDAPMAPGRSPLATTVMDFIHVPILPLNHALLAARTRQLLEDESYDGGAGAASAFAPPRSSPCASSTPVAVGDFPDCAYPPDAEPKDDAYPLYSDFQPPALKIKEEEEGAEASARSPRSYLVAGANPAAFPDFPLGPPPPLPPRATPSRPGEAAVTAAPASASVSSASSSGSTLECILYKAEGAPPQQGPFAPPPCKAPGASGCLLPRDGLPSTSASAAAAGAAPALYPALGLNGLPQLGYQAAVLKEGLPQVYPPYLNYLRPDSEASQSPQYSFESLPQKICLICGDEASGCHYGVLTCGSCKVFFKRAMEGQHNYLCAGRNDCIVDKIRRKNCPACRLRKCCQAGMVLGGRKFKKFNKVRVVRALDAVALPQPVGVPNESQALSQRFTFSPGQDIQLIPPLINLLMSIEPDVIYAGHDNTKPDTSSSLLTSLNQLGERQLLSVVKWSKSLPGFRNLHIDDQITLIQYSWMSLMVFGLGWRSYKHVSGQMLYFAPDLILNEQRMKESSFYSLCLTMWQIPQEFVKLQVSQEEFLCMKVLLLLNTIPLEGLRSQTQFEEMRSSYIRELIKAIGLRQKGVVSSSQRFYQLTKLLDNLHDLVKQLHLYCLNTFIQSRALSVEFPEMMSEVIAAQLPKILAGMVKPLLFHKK

[38] = target: Cholecystokinin receptor type A (Homo sapiens) (UniProt P32238); test: hCCKA Cerep panel; details: Compound concentration 10.0 uM
[39] = target: Toll-like receptor 4 (Homo sapiens) (UniProt O00206); test: Toll like receptor 4 Millipore kinase panel; details: Compound concentration 10.0 uM
[40] = target: Hepatocyte growth factor receptor (Homo sapiens) (UniProt P08581); test: met proto-oncogene Millipore kinase panel; details: Compound concentration 10.0 uM
Chain of Hepatocyte growth factor receptor (Homo sapiens) (P08581 whole entry): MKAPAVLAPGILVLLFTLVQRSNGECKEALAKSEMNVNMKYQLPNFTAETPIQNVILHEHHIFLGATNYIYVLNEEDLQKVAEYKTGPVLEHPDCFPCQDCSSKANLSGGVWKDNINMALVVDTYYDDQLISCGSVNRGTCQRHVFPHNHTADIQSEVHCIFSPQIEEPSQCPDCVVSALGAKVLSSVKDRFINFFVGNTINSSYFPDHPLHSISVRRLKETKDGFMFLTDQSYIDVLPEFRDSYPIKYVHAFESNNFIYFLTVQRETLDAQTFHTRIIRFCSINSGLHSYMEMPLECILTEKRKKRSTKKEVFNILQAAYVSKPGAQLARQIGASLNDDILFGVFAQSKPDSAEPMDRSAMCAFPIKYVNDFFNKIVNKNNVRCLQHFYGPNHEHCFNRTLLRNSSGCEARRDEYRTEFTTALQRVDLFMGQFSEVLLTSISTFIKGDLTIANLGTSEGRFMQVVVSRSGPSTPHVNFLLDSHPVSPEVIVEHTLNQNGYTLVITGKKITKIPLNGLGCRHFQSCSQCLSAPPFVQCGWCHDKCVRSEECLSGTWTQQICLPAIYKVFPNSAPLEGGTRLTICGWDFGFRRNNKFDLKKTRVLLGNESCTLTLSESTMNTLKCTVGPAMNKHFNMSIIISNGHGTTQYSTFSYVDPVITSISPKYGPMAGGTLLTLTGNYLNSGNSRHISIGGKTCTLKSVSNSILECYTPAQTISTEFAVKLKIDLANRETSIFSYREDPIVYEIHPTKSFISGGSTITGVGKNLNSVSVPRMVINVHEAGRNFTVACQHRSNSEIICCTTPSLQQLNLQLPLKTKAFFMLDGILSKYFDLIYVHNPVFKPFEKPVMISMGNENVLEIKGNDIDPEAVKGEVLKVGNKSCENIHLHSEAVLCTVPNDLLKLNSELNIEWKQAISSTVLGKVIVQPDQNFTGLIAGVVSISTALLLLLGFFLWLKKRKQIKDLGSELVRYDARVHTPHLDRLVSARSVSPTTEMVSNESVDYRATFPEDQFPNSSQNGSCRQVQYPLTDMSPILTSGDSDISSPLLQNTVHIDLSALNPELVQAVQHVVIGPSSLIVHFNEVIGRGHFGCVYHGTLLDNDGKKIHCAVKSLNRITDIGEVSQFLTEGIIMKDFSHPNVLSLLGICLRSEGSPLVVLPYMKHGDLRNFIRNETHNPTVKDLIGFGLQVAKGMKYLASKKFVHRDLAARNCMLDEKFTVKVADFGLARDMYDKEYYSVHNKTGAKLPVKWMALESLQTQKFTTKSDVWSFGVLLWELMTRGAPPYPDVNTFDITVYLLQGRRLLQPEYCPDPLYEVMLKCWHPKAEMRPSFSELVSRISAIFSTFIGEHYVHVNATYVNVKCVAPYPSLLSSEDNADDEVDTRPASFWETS

[41] = target: Amine oxidase [flavin-containing] A (Homo sapiens, UniProt P21397); test: hMAOA Cerep panel; details: 10 µM, compound concentration 10 uM
[42] = organism: Homo sapiens; test: hN muscle type alpha Cerep panel; details: Compound concentration 10.0 uM
[43] = target: Homeodomain-interacting protein kinase 2 (Homo sapiens) (UniProt Q9H2X6); test: homeodomain interacting protein kinase 2 Millipore kinase panel; details: Compound concentration 10.0 uM
[44] = target: Fibroblast growth factor receptor 3 (Homo sapiens) (UniProt P22607); test: fibroblast growth factor receptor 3 Millipore kinase panel; details: Compound concentration 10.0 uM
[45] = target: Receptor tyrosine-protein kinase erbB-4 (Homo sapiens) (UniProt Q15303); test: v-erb-a erythroblastic leukemia viral oncogene homolog 4 Millipore kinase panel; details: Compound concentration 10.0 uM

COCCc1ccc(-c2c(C)nc3c(N4CCOCC4)ccnn23)cn1 [JNJ-42396302] showed an effect [1] of 13.9%, an effect [2] of -12.3% and an inhibition [3] of 1%. For the same compound, the inhibition [4] was -2%, the effect [5] was -23.1% and the inhibition [6] was -2%. The inhibition [7] was -5%, the inhibition [8] was 9% and the inhibition [9] was 1%. The inhibition [10] was 4%, the inhibition [11] was -1% and the inhibition [12] was 0%. For the same compound, the inhibition [13] was 10%, the Ki [14] was 0.011 µM (active) and the inhibition [15] was 0%. The inhibition [16] was -5%, the inhibition [17] was -9% and the inhibition [18] was -2%. For the same compound, the inhibition [19] was -4%, the inhibition [20] was 7% and the effect [21] was 3.95%. The inhibition [22] was -2%, the inhibition [23] was 0% and the effect [24] was 3.35%. It also gave an inhibition [25] of -3%, an inhibition [26] of 10% and an effect [27] of -9.45%. The inhibition [28] was -6%, the inhibition [29] was 5% and the inhibition [30] was -7%. For the same compound, the inhibition [31] was 4%, the inhibition [32] was 7% and the Ki [33] was 41 µM. It also gave an inhibition [34] of 11%, a Ki [35] of over 10 µM and a pKi [35] of under 5. For the same compound, the effect [36] was -5.55%, the effect [37] was 13.5% and the effect [38] was -19.6%. The inhibition [39] was -5.24%, the inhibition [40] was -6% and the effect [41] was 13.8%. The effect [42] was -7.3%, the inhibition [43] was 0% and the inhibition [44] was -2%. It also gave an inhibition [45] of 9%.
